Results published in ChEMBL document CHEMBL1201862, “PubChem BioAssay data set” (2004).
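Compound exposure: 48 hours, 5 concentrations, 96-well plates. Here, GI50 denotes the concentration required for 50% inhibition of growth.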 Calls of active or inactive are those of the source. Cut-off read from the data, not from the text of the source: active = GI50 up to about 1.1 µM and inactive = higher.

Columns and labels:
Test in all cases: inhibition of tumour cell growth, NCI panel, 48 h
786-0 = system: 786-0
A498 = system: A498
A549 = system: A549
ACHN = system: ACHN
BT-549 = system: BT-549
CCRF-CEM = system: CCRF-CEM
COLO 205 = system: COLO 205
DLD-1 = system: DLD-1
DMS-114 = system: DMS-114
DMS-273 = system: DMS-273
DU-145 = system: DU-145
HCC 2998 = system: HCC 2998
HCT-116 = system: HCT-116
HCT-15 = system: HCT-15
HL-60 = system: HL-60
HOP-18 = system: HOP-18
HOP-62 = system: HOP-62
HT-29 = system: HT-29
Hs-578T = system: Hs-578T
IGROV-1 = system: IGROV-1
K562 = system: K562
KM12 = system: KM12
LOX IMVI = system: LOX IMVI
LXFL 529 = system: LXFL 529
M14 = system: M14
M19-MEL = system: M19-MEL
MCF7 = system: MCF7
MDA-MB-231 = system: MDA-MB-231
MDA-MB-435 = system: MDA-MB-435
MDA-N = system: MDA-N
MOLT-4 = system: MOLT-4
Malme-3M = system: Malme-3M
NCI-H226 = system: NCI-H226
NCI-H23 = system: NCI-H23
NCI-H460 = system: NCI-H460
NCI-H522 = system: NCI-H522
NCI/ADR-RES = system: NCI/ADR-RES
OVCAR-3 = system: OVCAR-3
OVCAR-4 = system: OVCAR-4
OVCAR-5 = system: OVCAR-5
OVCAR-8 = system: OVCAR-8
PC-3 = system: PC-3
RPMI-8226 = system: RPMI-8226
RXF 393 = system: RXF 393
SF-268 = system: SF-268
SF-295 = system: SF-295
SF-539 = system: SF-539
SK-MEL-28 = system: SK-MEL-28
SK-MEL-2 = system: SK-MEL-2
SK-MEL-5 = system: SK-MEL-5
SK-OV-3 = system: SK-OV-3
SN12C = system: SN12C
SNB-19 = system: SNB-19
SNB-75 = system: SNB-75
SNB-78 = system: SNB-78
SR = system: SR
SW-620 = system: SW-620
T47D = system: T47D
TK-10 = system: TK-10
U-251 = system: U-251
UACC-257 = system: UACC-257
UACC-62 = system: UACC-62
UO-31 = system: UO-31
XF498 = system: XF498
CAKI-1 = system: CAKI-1
EKVX = system: EKVX
HOP-92 = system: HOP-92
KM-20L2 = system: KM-20L2

## Oc1cc(-c2cccc(Br)c2)nc2cc3c(cc12)OCO3
786-0
  GI50: 3.52 µM (inactive)
A498
  GI50: 3.08 µM (inactive)
A549
  GI50: 7.24 µM (inactive)
ACHN
  GI50: 5.32 µM (inactive)
BT-549
  GI50: 3.6 µM (inactive)
CCRF-CEM
  GI50: 8.38 µM (inactive)
COLO 205
  GI50: 32 µM (inactive)
DLD-1
  GI50: 3.16 µM (inactive)
DMS-114
  GI50: 2.85 µM (inactive)
DMS-273
  GI50: 4.37 µM (inactive)
DU-145
  GI50: 5.43 µM (inactive)
HCC 2998
  GI50: 15.1 µM (inactive)
HCT-116
  GI50: 3.53 µM (inactive)
HCT-15
  GI50: 4.14 µM
HL-60
  GI50: 3.57 µM (inactive)
HOP-18
  GI50: 15.7 µM (inactive)
HOP-62
  GI50: 1.99 µM (inactive)
HT-29
  GI50: 30.9 µM (inactive)
Hs-578T
  GI50: 3.32 µM (inactive)
IGROV-1
  GI50: 1.8 µM (inactive)
K562
  GI50: 3.74 µM (inactive)
KM12
  GI50: 3 µM (inactive)
LOX IMVI
  GI50: 2.75 µM (inactive)
LXFL 529
  GI50: 2.26 µM (inactive)
M14
  GI50: 2.65 µM (inactive)
M19-MEL
  GI50: 4.37 µM (inactive)
MCF7
  GI50: 18.7 µM (inactive)
MDA-MB-231
  GI50: 10.1 µM (inactive)
MDA-MB-435
  GI50: 0.883 µM (active)
MDA-N
  GI50: 0.31 µM (active)
MOLT-4
  GI50: 72.3 µM (inactive)
Malme-3M
  GI50: 2.7 µM (inactive)
NCI-H226
  GI50: 6.75 µM (inactive)
NCI-H23
  GI50: 5.38 µM (inactive)
NCI-H460
  GI50: 4.01 µM (inactive)
NCI-H522
  GI50: 3.93 µM (inactive)
NCI/ADR-RES
  GI50: 4.56 µM (inactive)
OVCAR-3
  GI50: 3.01 µM (inactive)
OVCAR-4
  GI50: > 30.8 µM (inactive)
OVCAR-5
  GI50: 51.5 µM (inactive)
OVCAR-8
  GI50: 4.57 µM (inactive)
PC-3
  GI50: 5.43 µM (inactive)
RPMI-8226
  GI50: 15 µM (inactive)
RXF 393
  GI50: 4.33 µM (inactive)
SF-268
  GI50: 4.36 µM (inactive)
SF-295
  GI50: 1.06 µM (active)
SF-539
  GI50: 2.19 µM (inactive)
SK-MEL-28
  GI50: 2.77 µM (inactive)
SK-MEL-2
  GI50: 2.16 µM (inactive)
SK-MEL-5
  GI50: 1.38 µM (inactive)
SK-OV-3
  GI50: 3.8 µM (inactive)
SN12C
  GI50: 5.6 µM (inactive)
SNB-19
  GI50: 3.37 µM (inactive)
SNB-75
  GI50: 2.72 µM (inactive)
SNB-78
  GI50: 3.37 µM (inactive)
SR
  GI50: 1.93 µM (inactive)
SW-620
  GI50: 3.61 µM (inactive)
T47D
  GI50: 14.6 µM (inactive)
TK-10
  GI50: 12.9 µM (inactive)
U-251
  GI50: 3.56 µM (inactive)
UACC-257
  GI50: 5.24 µM (inactive)
UACC-62
  GI50: 1.75 µM (inactive)
UO-31
  GI50: 5.81 µM (inactive)
XF498
  GI50: 4.16 µM (inactive)

## Cc1c(-c2ccc(-c3ccccc3F)cc2)nc2ccc(F)cc2c1C(=O)O [BREQUINAR SODIUM]
786-0
  GI50: 0.195 µM (active)
A498
  GI50: 49.8 µM (inactive)
A549
  GI50: 0.234 µM (active)
ACHN
  GI50: 0.153 µM (active)
BT-549
  GI50: 155 µM (inactive)
CAKI-1
  GI50: 0.904 µM (active)
CCRF-CEM
  GI50: 0.284 µM (active)
COLO 205
  GI50: 0.519 µM (active)
DLD-1
  GI50: 0.0875 µM (active)
DMS-273
  GI50: 0.193 µM (active)
DU-145
  GI50: 0.262 µM (active)
EKVX
  GI50: 16 µM (inactive)
HCC 2998
  GI50: 9.62 µM (inactive)
HCT-116
  GI50: 0.104 µM (active)
HCT-15
  GI50: 0.0566 µM
HL-60
  GI50: 0.479 µM (active)
HOP-18
  GI50: 46.1 µM (inactive)
HOP-62
  GI50: 1.1 µM (active)
HOP-92
  GI50: 35.2 µM (inactive)
HT-29
  GI50: 0.374 µM (active)
Hs-578T
  GI50: 6.93 µM (inactive)
IGROV-1
  GI50: 0.303 µM (active)
K562
  GI50: 0.143 µM (active)
KM-20L2
  GI50: 0.615 µM (active)
KM12
  GI50: 0.211 µM (active)
LOX IMVI
  GI50: 0.0931 µM (active)
M14
  GI50: 4.7 µM (inactive)
M19-MEL
  GI50: 1.2 µM (inactive)
MCF7
  GI50: 0.267 µM (active)
MDA-MB-231
  GI50: 9.93 µM (inactive)
MDA-N
  GI50: 0.631 µM (active)
MOLT-4
  GI50: 0.0887 µM (active)
Malme-3M
  GI50: 15.4 µM (inactive)
NCI-H226
  GI50: 19.5 µM (inactive)
NCI-H23
  GI50: 21.5 µM (inactive)
NCI-H460
  GI50: 0.128 µM (active)
NCI-H522
  GI50: 2 µM (inactive)
NCI/ADR-RES
  GI50: 2.18 µM (inactive)
OVCAR-3
  GI50: 3.74 µM (inactive)
OVCAR-4
  GI50: 2.73 µM (inactive)
OVCAR-5
  GI50: 38.8 µM (inactive)
OVCAR-8
  GI50: 0.325 µM (active)
PC-3
  GI50: 0.5 µM (active)
RPMI-8226
  GI50: 0.373 µM (active)
RXF 393
  GI50: 11.7 µM (inactive)
SF-268
  GI50: 0.372 µM (active)
SF-295
  GI50: 0.243 µM (active)
SF-539
  GI50: 0.346 µM (active)
SK-MEL-28
  GI50: 9.93 µM (inactive)
SK-MEL-2
  GI50: 61.8 µM (inactive)
SK-MEL-5
  GI50: 1.39 µM (inactive)
SK-OV-3
  GI50: 16.1 µM (inactive)
SN12C
  GI50: 1.79 µM (inactive)
SNB-19
  GI50: 1.25 µM (inactive)
SNB-75
  GI50: 30.3 µM (inactive)
SR
  GI50: 0.427 µM (active)
SW-620
  GI50: 0.384 µM (active)
T47D
  GI50: 16.9 µM (inactive)
TK-10
  GI50: 16.3 µM (inactive)
U-251
  GI50: 0.194 µM (active)
UACC-257
  GI50: 12.5 µM (inactive)
UACC-62
  GI50: 0.265 µM (active)
UO-31
  GI50: 1.14 µM (inactive)
XF498
  GI50: 18.1 µM (inactive)
